Read-outs that look alike come from different tables or passages of the source. Square brackets hold non-standard residues; d marks the D form. Ends that are not written are not given here. Peptide text beside a SMILES is read from it.
Legend:
pancreatin = test: Protease resistance assay; format: in vitro ADME; settings: increasing concentrations of pancreatin, highest ratio 400 pg/nmol; 2 h at 37° C.; MALDI-TOF
Experimental: Protease resistance assay. The D(LPR) and RPL peptides were diluted to 500 μg/ml in PBS and incubated with increasing concentrations of pancreatin (Sigma-Aldrich, St. Louis, Mo.) for 2 h at 37° C. Samples were then analyzed by mass spectroscopy (MALDI-TOF).

NRP-1 [1] = target: T1, NRP-1 (Homo sapiens, UniProt O14786); test: Phage binding competition assay, immobilized NRP-1
T1 construct: purchased R&D Systems (Minneapolis, Minn.)
Experimental: (§1) Phage assay. Phage was prepared by infection of log-phase culture of E. coli K91kan, and overnight growth in Luria-Bertani (LB) media supplemented with kanamycin (100 μg/ml) and tetracyclin (20 μg/ml) at 37° C. and 250 rpm. Phage was precipiated from the media supernatant by the PEG/NaCl method, and phage titer determined by serial dilution and colony counting (Giordano, 2001). For the phage binding and competition assays, VEGFR-1, NRP-1 or BSA (10 μg/ml in PBS) was immobilized on microtiter wells overnight at 4° C. Wells were washed twice, blocked with PBS 3% BSA for 2 h at room temperature and incubated with 10^9 TU of CPQPRPLC or negative control insertless (Fd-tet) phage in PBS 3% BSA. After 1 h at room temperature, wells were washed 10 times with PBS and phage bound to the immobilized receptors recovered by bacterial infection (Giordano, 2001).

VEGFR-1 [2] = target: T2, VEGFR-1 (Homo sapiens, UniProt P17948); test: Phage binding competition assay, immobilized VEGFR-1
T2 construct: purchased R&D Systems (Minneapolis, Minn.)
Experimental: as §1

white fat = settings: previous studies of the inventors; cited from earlier work
[3] = Weight loss in diet-induced obese mice; format: in vivo, mouse
Source text: The present inventors thus carried out studies to assess the ability of the LPR VEGFR-1 targeting peptides of the present invention to target fat tissue and thereby reduce weight in diet-induced obese mice. To this end, diet-induced obese mice were divided in groups and treated with the VEGFR-1/NRP-1 targeting peptide. C57BL/6 ]-60% DIO mice (36-weeks old) were purchased from The Jackson Laboratory. These animals were fed on a high calorie diet (J-60%) to produce a diet-induced obesity (DIO) phenotype. Animals were divided in groups and treated daily with: [Group 1]D(CLPRC) (SEQ ID NO:7) (N=5); [Group 2] CKGGRAKDC-GG-D(KLAKLAK)2 (SEQ ID NO:9) (N=3); [Group 3]D(CLPRC) combined with CKGGRAKDC-GG-D(KLAKLAK)2 (SEQ ID NO:10) (N=4); [Group 4] vehicle only (N=4). All animals were hydrated by intraperitoneally administration of 1 ml of saline solution (0.9% sodium chloride solution, USP quality) 30 minutes prior to treatment. Mice were treated daily with D(CLPRC) dissolved in phosphate buffered saline vehicle (PBS) (100 μl total injection) at a 50 mg/Kg/body weight dose (Groups 1 and 3); CKGGRAKDC-GG-D(KLAKLAK)2 (SEQ ID NO:9) in PBS was administered by subcutaneously (100 total volume) at 3 mg/Kg (Group 2) or at 1 mg/Kg when in combination with D(CLPRC) (Group 3) 5 days a week (Monday thru Friday). Mice were weighted once a week.

VEGFR-1 [4] = target: T2, VEGFR-1; settings: Giordano et al., 2001; read-out: IC50 previously described for VEGFR-1; cited from earlier work
NRP-1 [5] = target: T1, NRP-1; settings: Giordano et al., 2001; read-out: IC50 previously described for NRP-1; cited from earlier work
EF43.fgf4 derived tumors = test: Tumor growth, EF43.fgf4 breast cancer model; format: in vivo, mouse
Experimental: Tumor growth. The EF43.fgf4 cells were cultured in Dulbelco's modified Eegles medium supplemented with fetal bovine serum, glutamine and antibiotics. Cells were harvested before reaching confluence and injected subcutaneously in the mammary fatpad of Balb/c mice. Mier 10 days, tumor reached ˜50-80 mm^3 and were then separated into four groups with seven animals (N=7). Animals in each group were treated with either vehicle only (phosphate saline buffered solution) or with control peptide D(CAPAC) (SEQ ID NO:6) or D(LPR) (at 50 mg/Kg) or with the cyclic version D(CLPRC) (SEQ ID NO:7) (at 25 mg/Kg). Tumor volume was calculated by measuring the length of the long (L) and the short (S) sides of each tumor (V=S^2×L×[…]).
Statistical analysis. For the in vivo experiments, statistical significance of the difference was computed by Kruskal-Wallis test (non parametric one factor ANOVA method) with p<0.05 for each treatment day. […] Multiple comparisons were adjusted by Bejamini & Hochberg method. All the statistical analysis was computed using The R (Version 2.4.1) Project for Statistical Computing.

[6] = fat-zapper alone, 3 mg/Kg subcutaneously, obese mice
[7] = obese C57BL/6 mice, 50 mg/Kg daily intraperitoneally, over the treatment period

T2 sequence (P17948 27-1338, species assumed): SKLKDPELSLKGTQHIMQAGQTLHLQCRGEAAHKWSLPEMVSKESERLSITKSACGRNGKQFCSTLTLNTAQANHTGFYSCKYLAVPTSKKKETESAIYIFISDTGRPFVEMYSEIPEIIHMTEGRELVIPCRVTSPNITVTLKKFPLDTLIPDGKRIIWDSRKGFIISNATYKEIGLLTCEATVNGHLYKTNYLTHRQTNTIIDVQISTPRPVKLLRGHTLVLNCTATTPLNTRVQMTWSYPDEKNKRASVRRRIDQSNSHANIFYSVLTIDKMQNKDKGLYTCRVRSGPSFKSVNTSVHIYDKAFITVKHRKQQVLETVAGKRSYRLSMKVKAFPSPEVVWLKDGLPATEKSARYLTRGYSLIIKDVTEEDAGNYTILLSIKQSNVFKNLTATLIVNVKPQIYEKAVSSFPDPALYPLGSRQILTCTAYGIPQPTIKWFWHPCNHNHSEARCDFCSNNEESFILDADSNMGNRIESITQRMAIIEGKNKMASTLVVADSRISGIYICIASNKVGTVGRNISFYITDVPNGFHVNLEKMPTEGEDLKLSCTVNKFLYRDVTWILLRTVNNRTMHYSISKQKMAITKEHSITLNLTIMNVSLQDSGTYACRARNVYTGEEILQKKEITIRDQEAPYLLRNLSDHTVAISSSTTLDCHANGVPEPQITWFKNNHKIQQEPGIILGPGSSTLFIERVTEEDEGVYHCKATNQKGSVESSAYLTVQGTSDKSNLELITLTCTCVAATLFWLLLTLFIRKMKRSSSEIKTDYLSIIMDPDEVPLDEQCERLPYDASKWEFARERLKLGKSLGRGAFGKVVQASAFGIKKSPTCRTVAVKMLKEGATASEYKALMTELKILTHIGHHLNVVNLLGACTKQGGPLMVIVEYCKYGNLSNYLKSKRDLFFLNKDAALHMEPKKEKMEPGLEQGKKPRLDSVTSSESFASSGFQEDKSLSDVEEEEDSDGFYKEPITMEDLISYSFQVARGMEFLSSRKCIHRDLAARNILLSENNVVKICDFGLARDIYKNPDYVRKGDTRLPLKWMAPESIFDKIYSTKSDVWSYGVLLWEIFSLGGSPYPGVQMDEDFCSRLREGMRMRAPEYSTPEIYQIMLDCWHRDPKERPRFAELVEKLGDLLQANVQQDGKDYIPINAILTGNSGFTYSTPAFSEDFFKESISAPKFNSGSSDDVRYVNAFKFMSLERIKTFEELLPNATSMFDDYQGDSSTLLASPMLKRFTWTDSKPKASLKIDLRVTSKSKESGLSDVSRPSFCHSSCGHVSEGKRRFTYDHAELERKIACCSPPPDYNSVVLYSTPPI
T1 sequence (O14786 22-923): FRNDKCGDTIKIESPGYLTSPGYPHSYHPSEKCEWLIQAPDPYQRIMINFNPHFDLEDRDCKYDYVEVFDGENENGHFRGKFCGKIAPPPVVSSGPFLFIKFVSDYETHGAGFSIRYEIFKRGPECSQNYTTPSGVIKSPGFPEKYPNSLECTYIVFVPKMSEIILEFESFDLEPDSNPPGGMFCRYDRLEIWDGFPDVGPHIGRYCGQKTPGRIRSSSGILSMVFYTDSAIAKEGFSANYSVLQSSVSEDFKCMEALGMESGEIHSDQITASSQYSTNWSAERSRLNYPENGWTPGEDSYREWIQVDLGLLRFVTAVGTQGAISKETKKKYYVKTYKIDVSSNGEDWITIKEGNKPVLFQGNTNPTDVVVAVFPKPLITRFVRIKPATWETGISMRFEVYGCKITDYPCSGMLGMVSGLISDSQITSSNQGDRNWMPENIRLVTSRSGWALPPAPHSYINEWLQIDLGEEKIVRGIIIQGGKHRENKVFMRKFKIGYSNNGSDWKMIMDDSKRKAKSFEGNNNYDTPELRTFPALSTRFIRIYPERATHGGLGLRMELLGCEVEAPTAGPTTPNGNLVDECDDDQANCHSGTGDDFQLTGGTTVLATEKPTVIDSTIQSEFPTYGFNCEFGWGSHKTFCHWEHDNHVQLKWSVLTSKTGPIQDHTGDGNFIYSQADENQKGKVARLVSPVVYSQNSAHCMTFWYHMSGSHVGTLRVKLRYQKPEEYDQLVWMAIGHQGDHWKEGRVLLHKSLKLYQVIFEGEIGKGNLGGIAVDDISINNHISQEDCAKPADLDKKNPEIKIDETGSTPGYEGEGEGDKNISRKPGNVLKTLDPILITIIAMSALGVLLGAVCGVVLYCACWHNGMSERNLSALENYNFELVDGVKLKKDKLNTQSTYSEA

## CC(C)C[C@@H](N)C(=O)N1CCC[C@@H]1C(=O)N[C@H](CCCNC(=N)N)C(=O)O [D(LPR), D-Leu-D-Pro-D-Arg] (H-[dL]-[dP]-[dR]-OH)
pancreatin
  proteolytic degradation by pancreatin (breakdown products by mass spectroscopy): No breakdown products were observed
NRP-1 [1]
  IC50: 0.001 to 0.01 nM
VEGFR-1 [2]
  IC50: 0.001 to 0.01 nM

## CC(C)C[C@H](NC(=O)[C@@H]1CCCN1C(=O)[C@@H](N)CCCNC(=N)N)C(=O)O [RPL, L-Arg-L-Pro-L-Leu, reference compound] (H-Arg-Pro-Leu-OH)
pancreatin
  proteolytic degradation by pancreatin (breakdown products by mass spectroscopy): marked degradation

## CKGGRAKDC-GG-D(KLAKLAK)2 (CKGGRAKDCGG[dK][dL][dA][dK][dL][dA][dK][dK][dL][dA][dK][dL][dA][dK]; cysteine pairing not given here) [fat-zapper, homing peptide … conjugated to the proapoptotic peptide D(KLAKLAK)2, reference compound]
White fat
  therapeutic dose that induces fat ablation: ≥ 3 mg/Kg/body weight
[3]; [6]
  weight loss: about 10 grams
  weight loss, % body weight: 20 % body weight

## CPQPRPLC
VEGFR-1 [4]
  IC50: ~1 nM
NRP-1 [5]
  IC50: 50 to 100 nM

## D(Cys Leu Pro Arg Cys) ([dC][dL][dP][dR][dC]; also: cyclic, ring type not given here) [D(CLPRC)]
EF43.fgf4 derived tumors; 25 mg/Kg daily, Balb/c mice
  effect on tumor volume: significant reduction in tumor volume
EF43.fgf4 derived tumors; legend: 50 mg/Kg daily, after five days of treatment, compared to control animals
  effect on tumor volume (FIG. 3 legend): reduced tumor volume
[3]; [7]
  weight loss: about 3 grams
  weight loss, % of body weight: approx. 6 % of body weight

Source: patent publication US20120028880A1, “VEGFR-1/NRP-1 TARGETING PEPTIDES” (priority 2007, published 2012)
